Data taken from patent US20110269763A1, “CRTH2 receptor ligands for medicinal uses” (7TM Pharma A/S, priority 2004, published 2011).
pIC50: −log10 of the molar value.

Key:
[1] = biological target: T1, human CRTH2 (Homo sapiens, UniProt Q9Y5Y4, V204A); test: Receptor binding assay: [3H]PGD2 competition binding on whole COS-7 cells transiently transfected with CRTH2 (also stable HEK293 cells); parameters: expressed in transfected cells; host or cells: COS-7 (transient, calcium phosphate)
T1 sequence (Q9Y5Y4 1-395 V204A): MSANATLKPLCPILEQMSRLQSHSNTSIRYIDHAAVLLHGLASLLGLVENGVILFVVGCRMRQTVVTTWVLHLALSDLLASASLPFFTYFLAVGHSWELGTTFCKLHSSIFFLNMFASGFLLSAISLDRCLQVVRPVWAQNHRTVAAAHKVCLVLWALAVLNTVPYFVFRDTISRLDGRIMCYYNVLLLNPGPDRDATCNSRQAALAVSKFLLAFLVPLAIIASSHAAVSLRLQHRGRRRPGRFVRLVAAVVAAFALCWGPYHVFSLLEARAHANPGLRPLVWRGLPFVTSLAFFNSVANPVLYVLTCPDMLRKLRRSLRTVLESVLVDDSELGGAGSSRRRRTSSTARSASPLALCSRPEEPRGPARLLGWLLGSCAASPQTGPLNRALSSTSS
Method in brief: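 Whole COS-7 cells transiently transfected with human CRTH2 (calcium phosphate), or stable HEK293 cells, competed against 0.1 nM [3H]PGD2 in HBSS/10 mM HEPES with 1% DMSO, 3 h at 4 °C. Nonspecific binding with 10 μM PGD2; scintillation counting, duplicates. IC50 from curve fitting.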

[2] = biological target: T1, human CRTH2; test: Functional antagonist BRET assay on HEK293 cells stably expressing human CRTH2-Rluc and GFP2-β-arr2; type: cell-based; parameters: expressed in transfected cells; details: read-out: Antag. IC50
Method in brief: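 Cells (2×10^6/mL in D-PBS with glucose) were preincubated 15 min with antagonist at 1% DMSO, then agonist and DeepBlueC were co-injected. Emission at 400 and 515 nm was read 5 s later, and the mBRET ratio (515/400 nm) was used to derive IC50 from concentration–response curves.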

[3] = competition with 0.1 nM [3H]PGD2, whole cells, 3 h at 4° C.
[4] = BRET, antagonist incubated 15 minutes prior to agonist
[5] = receptor binding assay, Table 3
[6] = functional antagonist assay, Table 3

Row | SMILES | pIC50 [1, 3] | pIC50 [2, 4] | pIC50 [1, 5] | pIC50 [2, 6]
1 | Cc1cccc(C)c1-n1cc(C(=O)c2cc(Br)ccc2OCC(=O)O)cn1 [D71, {4-Bromo-2-[1-(2,6-dimethylphenyl)-1H-pyrazole-4-carbonyl]phenoxy}acetic acid] | > 6.30 | > 6.30 | – | –
2 | CCc1cccc(C)c1-n1cc(C(=O)c2cc(Br)ccc2OCC(=O)O)cn1 [D72, {4-Bromo-2-[1-(2-ethyl-6-methylphenyl)-1H-pyrazole-4-carbonyl]phenoxy}acetic acid] | > 6.30 | > 6.30 | – | –
3 | CCCCc1ccc(OCC(=O)O)c(C(=O)c2cnn(-c3ccccc3)c2)c1 [D75, [4-Butyl-2-(1-phenyl-1H-pyrazole-4-carbonyl)phenoxy]acetic acid] | > 6.30 | < 5.30 | – | –
4 | Cc1cccc(Cl)c1-n1cc(C(=O)c2cc(Br)ccc2OCC(=O)O)cn1 [D76, {4-Bromo-2-[1-(2-chloro-6-methylphenyl)-1H-pyrazole-4-carbonyl]phenoxy}acetic acid] | > 6.30 | > 6.30 | – | –
5 | CCc1cccc(CC)c1-n1cc(C(=O)c2cc(Br)ccc2OC(C)C(=O)O)cn1 (stereo not shown) [D78, 2-{4-Bromo-2-[1-(2,6-diethylphenyl)-1H-pyrazole-4-carbonyl]phenoxy}propionic acid] | > 6.30 | > 6.30 | – | –
6 | O=C(O)COc1ccc(Br)cc1C(=O)c1cnn(-c2c(Cl)cncc2Cl)c1 [D80, {4-Bromo-2-[1-(3,5-dichloropyridin-4-yl)-1H-pyrazole-4-carbonyl]phenoxy}acetic acid] | > 6.30 | > 6.30 | – | –
7 | O=C(O)COc1ccc(Br)cc1C(=O)c1cnn(-c2cccc3ccccc23)c1 [D82, [4-Bromo-2-(1-naphthalen-1-yl-1H-pyrazole-4-carbonyl)phenoxy]acetic acid] | > 6.30 | > 6.30 | – | –
8 | O=C(O)COc1ccc(Br)cc1-c1coc(-c2ccccc2)n1 [D83, [4-Bromo-2-(2-phenyloxazol-4-yl)phenoxy]acetic acid] | > 6.30 | < 5.30 | – | –
9 | COc1ccc(-c2nc(-c3cc(Br)ccc3OCC(=O)O)co2)cc1 [D84, {4-Bromo-2-[2-(4-methoxyphenyl)oxazol-4-yl]phenoxy}acetic acid] | > 6.30 | 5.30 to 6.30 | – | –
10 | O=C(O)COc1ccc(Br)cc1-c1coc(-c2ccc(Cl)cc2)n1 [D85, {4-Bromo-2-[2-(4-chlorophenyl)oxazol-4-yl]phenoxy}acetic acid] | > 6.30 | < 5.30 | – | –
11 | COc1cccc(-c2nc(-c3cc(Br)ccc3OCC(=O)O)co2)c1 [D86, {4-Bromo-2-[2-(3-methoxyphenyl)oxazol-4-yl]phenoxy}acetic acid] | > 6.30 | > 6.30 | – | –
12 | CCOc1ccc(-c2nc(-c3cc(Br)ccc3OCC(=O)O)co2)cc1 [D87, {4-Bromo-2-[2-(4-ethoxyphenyl)oxazol-4-yl]phenoxy}acetic acid] | > 6.30 | < 5.30 | – | –
13 | O=C(O)COc1ccc(Br)cc1-c1coc(Cc2ccccc2)n1 [D88, [2-(2-Benzyloxazol-4-yl)-4-bromophenoxy]acetic acid] | > 6.30 | > 6.30 | – | –
14 | COc1cccc(Cc2nc(-c3cc(Br)ccc3OCC(=O)O)co2)c1 [D89, {4-Bromo-2-[2-(3-methoxybenzyl)oxazol-4-yl]phenoxy}acetic acid] | > 6.30 | > 6.30 | – | –
15 | O=C(O)COc1ccc(Br)cc1-c1coc(Cc2c(Cl)cccc2Cl)n1 [D91, {4-Bromo-2-[2-(2,6-dichlorobenzyl)oxazol-4-yl]phenoxy}acetic acid] | > 6.30 | > 6.30 | – | –
16 | O=C(O)COc1ccc(Br)cc1-c1csc(-c2ccccc2)n1 [D93, [4-Bromo-2-(2-phenylthiazol-4-yl)phenoxy]acetic acid] | > 6.30 | > 6.30 | – | –
17 | O=C(O)COc1ccc(Br)cc1-c1csc(Cc2ccc(Cl)cc2)n1 [D94, {4-Bromo-2-[2-(4-chlorobenzyl)thiazol-4-yl]phenoxy}acetic acid] | > 6.30 | > 6.30 | – | –
18 | O=C(O)COc1ccc(Br)cc1C(=O)c1cnc(-c2ccccc2)s1 [D95, [4-Bromo-2-(2-phenylthiazole-5-carbonyl)phenoxy]acetic acid] | > 6.30 | > 6.30 | – | –
19 | O=C(O)COc1ccc(Br)cc1C(=O)c1cc(-c2ccccc2)no1 [D97, [4-Bromo-2-(3-phenylisoxazole-5-carbonyl)phenoxy]acetic acid] | > 6.30 | > 6.30 | – | –
20 | O=C(O)COc1ccc(Br)cc1-c1nc(-c2ccc(F)cc2)no1 [D100, {4-Bromo-2-[3-(4-fluoro-phenyl)-[1,2,4]oxadiazol-5-yl]phenoxy}acetic acid] | – | – | > 6.30 | > 6.30
21 | COc1ccc(-c2noc(-c3cc(Br)ccc3OCC(=O)O)n2)cc1 [D101, {4-Bromo-2-[3-(4-methoxy-phenyl)-[1,2,4]oxadiazol-5-yl]phenoxy}acetic acid] | – | – | > 6.30 | > 6.30
22 | O=C(O)COc1ccc(Br)cc1-c1nc(-c2ccc(Cl)cc2)no1 [D102, {4-Bromo-2-[3-(4-chlorophenyl)-[1,2,4]oxadiazol-5-yl]phenoxy}acetic acid] | – | – | > 6.30 | > 6.30

The remaining lines, values ahead:

Row | pIC50 [1, 3] | pIC50 [2, 4] | pIC50 [1, 5] | pIC50 [2, 6] | SMILES
23 | > 6.30 | > 6.30 | – | – | CCc1cccc(CC)c1-n1cc(C(=O)c2cc(Br)ccc2OCC(=O)O)cn1 [D70, {4-Bromo-2-[1-(2,6-diethyl-phenyl)-1H-pyrazole-4-carbonyl]phenoxy}acetic acid]
24 | > 6.30 | > 6.30 | – | – | CC(C)c1ccccc1-n1cc(C(=O)c2cc(Br)ccc2OCC(=O)O)cn1 [D73, {4-Bromo-2-[1-(2-isopropylphenyl)-1H-pyrazole-4-carbonyl]phenoxy}acetic acid]
25 | 5.30 to 6.30 | < 5.30 | – | – | CCOc1ccc(OCC(=O)O)c(C(=O)c2cnn(-c3ccccc3)c2)c1 [D74, [4-Ethoxy-2-(1-phenyl-1H-pyrazole-4-carbonyl)phenoxy]acetic acid]
26 | > 6.30 | > 6.30 | – | – | Cc1cccc(C)c1-n1cc(C(=O)c2cc(Br)ccc2OC(C)C(=O)O)cn1 (stereo not shown) [D77, 2-{4-Bromo-2-[1-(2,6-dimethylphenyl)-1H-pyrazole-4-carbonyl]phenoxy}propionic acid]
27 | > 6.30 | > 6.30 | – | – | CC(Oc1ccc(Br)cc1C(=O)c1cnn(-c2ccccc2C(C)C)c1)C(=O)O (stereo not shown) [D79, 2-{4-Bromo-2-[1-(2-isopropylphenyl)-1H-pyrazole-4-carbonyl]phenoxy}propionic acid]
28 | > 6.30 | > 6.30 | – | – | O=C(O)COc1ccc(Br)cc1C(=O)c1cnn(-c2ccc(C(F)(F)F)cc2)c1 [D81, {4-Bromo-2-[1-(4-trifluoromethylphenyl)-1H-pyrazole-4-carbonyl]phenoxy}acetic acid]
29 | > 6.30 | > 6.30 | – | – | O=C(O)COc1ccc(Br)cc1-c1coc(Cc2ccc(F)cc2Cl)n1 [D90, {4-Bromo-2-[2-(2-chloro-4-fluorobenzyl)oxazol-4-yl]phenoxy}acetic acid]
30 | > 6.30 | > 6.30 | – | – | COc1ccc(Cc2nc(-c3cc(Br)ccc3OCC(=O)O)co2)cc1 [D92, {4-Bromo-2-[2-(4-methoxybenzyl)oxazol-4-yl]phenoxy}acetic acid]
31 | > 6.30 | 5.30 to 6.30 | – | – | O=C(O)COc1ccc(Br)cc1-c1nc(-c2ccccc2)co1 [D96, [4-Bromo-2-(4-phenyl-oxazol-2-yl)-phenoxy]acetic acid]
32 | – | – | > 6.30 | > 6.30 | O=C(O)COc1ccc(Br)cc1-c1nc(-c2ccccc2)no1 [D99, [4-Bromo-2-(3-phenyl-[1,2,4]oxadiazol-5-yl)phenoxy]acetic acid]
